Test results from ChEMBL document CHEMBL1136447, “Biological investigation and structure-activity relationship studies on azadirone from Azadirachta indica A. Juss” (2003).

What was measured:
A498 [1] = assay: In vitro cytotoxic activity against renal (A498) cell line at a concentration of 10e-5 M; format: functional, Homo sapiens
NCI-H522 [2] = assay: In vitro cytotoxic activity against lung (H522) cell line at a concentration of 10e-5 M
SK-OV-3 [3] = assay: In vitro cytotoxic activity against Ovarian (SK-OV3) cell line at a concentration of 10e-5 M; format: functional, Homo sapiens
DU-145 [4] = assay: In vitro cytotoxic activity against prostate (DU145) cell line at a concentration of 10e-5 M; format: functional, Homo sapiens
SK-OV-3 [5] = assay: In vitro cytotoxic activity against Ovarian (SK-OV3) cell line; format: functional; conditions: Homo sapiens
M14 [6] = assay: In vitro cytotoxic activity against Melanoma (M14) cell line at a concentration of 10e-5 M; format: functional, Homo sapiens
M14 [7] = assay: In vitro cytotoxic activity against Melanoma (M14) cell line; format: functional; conditions: Homo sapiens
A498 [8] = assay: In vitro cytotoxic activity against renal (A498) cell line; format: functional; conditions: Homo sapiens
U-251 [9] = assay: In vitro cytotoxic activity against CNS(U251) cell line; format: functional; conditions: Homo sapiens
SW-620 [10] = assay: In vitro cytotoxic activity against colon (SW620) cell line; format: functional; conditions: Homo sapiens
NCI-H522 [11] = assay: In vitro cytotoxic activity against lung (H522) cell line; conditions: Homo sapiens
MCF7 [12] = assay: In vitro cytotoxic activity against breast (MCF-7/ADR) cell line; format: functional; conditions: Homo sapiens
MCF7 [13] = assay: In vitro cytotoxic activity against breast (MCF-7/ADR) cell line at a concentration of 10e-5 M; format: functional, Homo sapiens
SW-620 [14] = assay: In vitro cytotoxic activity against colon (SW620) cell line at a concentration of 10e-5 M; format: functional, Homo sapiens
U-251 [15] = assay: In vitro cytotoxic activity against CNS(U251) cell line at a concentration of 10e-5 M; format: functional, Homo sapiens
DU-145 [16] = assay: In vitro cytotoxic activity against prostate (DU145) cell line; format: functional; conditions: Homo sapiens
NCI-H522 [17] = assay: In vitro cytotoxic activity against lung (H522) cell line at a concentration of 10e-5 M; format: functional, Homo sapiens
Mus musculus [18] = assay: In vivo potential in Swiss Albino Mice using modified hollow fiber assay at the dose of 150 mg/kg by ip administration; format: functional; conditions: route intraperitoneal
Mus musculus [19] = assay: In vivo potential in Swiss Albino Mice using modified hollow fiber assay at the dose of 75 mg/kg by sc administration; format: functional; conditions: route subcutaneous
Mus musculus [20] = assay: In vivo potential in Swiss Albino Mice using modified hollow fiber assay at the dose of 150 mg/kg by sc administration; format: functional; conditions: route subcutaneous
Mus musculus [21] = assay: In vivo potential in Swiss Albino Mice using modified hollow fiber assay at the dose of 150 mg/kg as total score; format: functional
Mus musculus [22] = assay: In vivo potential in Swiss Albino Mice using modified hollow fiber assay at the dose of 75 mg/kg by ip administration; format: functional; conditions: route intraperitoneal
Mus musculus [23] = assay: In vivo potential in Swiss Albino Mice using modified hollow fiber assay at the dose of 75 mg/kg as total score; format: functional
Mus musculus [24] = assay: In vivo potential in Swiss Albino Mice using modified hollow fiber assay at the dose of 100 mg/kg by ip administration; format: functional; conditions: route intraperitoneal
Mus musculus [25] = assay: In vivo potential in Swiss Albino Mice using modified hollow fiber assay at the dose of 50 mg/kg by sc administration; format: functional; conditions: route subcutaneous
Mus musculus [26] = assay: In vivo potential in Swiss Albino Mice using modified hollow fiber assay at the dose of 100 mg/kg as total score; format: functional
NCI-H522 [27] = assay: In vitro cytotoxicity against H522 (human adenocarcinoma) cell line at a concentration of 10e-5 M.
Mus musculus [28] = assay: In vivo potential in Swiss Albino Mice using modified hollow fiber assay at the dose of 50 mg/kg by ip administration; format: functional; conditions: route intraperitoneal
Mus musculus [29] = assay: In vivo potential in Swiss Albino Mice using modified hollow fiber assay at the dose of 50 mg/kg as total score; format: functional
Mus musculus [30] = assay: In vivo potential in Swiss Albino Mice using modified hollow fiber assay at the dose of 100 mg/kg by sc administration; format: functional; conditions: route subcutaneous

SMILES	Growth (A498 [1]) [%]	Growth (NCI-H522 [2]) [%]	Growth (SK-OV-3 [3]) [%]	Growth (DU-145 [4]) [%]	GI50 (SK-OV-3 [5]) [µM]	Growth (M14 [6]) [%]	GI50 (M14 [7]) [µM]	GI50 (A498 [8]) [µM]	GI50 (U-251 [9]) [µM]	GI50 (SW-620 [10]) [µM]	GI50 (NCI-H522 [11]) [µM]	GI50 (MCF7 [12]) [µM]	Growth (MCF7 [13]) [%]	Growth (SW-620 [14]) [%]	Growth (U-251 [15]) [%]	GI50 (DU-145 [16]) [µM]	Score (Mus musculus [18])	Score (Mus musculus [19])	Score (Mus musculus [20])	Score (Mus musculus [21])	other results
CC(C)(C)OC(=O)NCC(=O)O[C@@H]1CC2C(C)(C)C(=O)C=C[C@]2(C)C2CC[C@]3(C)C(=CC[C@H]3c3ccoc3)[C@@]21C (some centres undefined)	33	53	48	63	65	58	20	12	50	20	15	60	62	67	53	20	–	–	–	–	–
CC1(C)C(=O)C=C[C@@]2(C)C1CC(=O)[C@@]1(C)C3=CC[C@@H](c4ccoc4)[C@]3(C)CCC12 (some centres undefined)	9	–	43	7	7.5	7	0.6	4	6	3	25	3	30	3	27	6	–	–	–	–	Growth (NCI-H522 [17]): 43%
CC(=O)O[C@@H]1CC2C(C)(C)C(=O)C=C[C@]2(C)C2CC[C@]3(C)C(=CC[C@H]3c3ccoc3)[C@@]21C (some centres undefined)	23	29	30	-6	5	-6	0.08	2	2.5	7	6	0.06	-18	29	-4	0.05	24	12	24	48	Score (Mus musculus [22]): 14; Score (Mus musculus [23]): 36
CC(=O)O[C@@H]1CC2C(C)(C)/C(=N/OCCN3CCCC3)C=C[C@]2(C)C2CC[C@]3(C)C(=CC[C@H]3c3ccoc3)[C@@]21C (some centres undefined)	-16	–	-35	32	4	26	5	4	4	3	4	3	22	-51	-24	6	–	–	–	–	Score (Mus musculus [24]): 24; Score (Mus musculus [25]): 8; Score (Mus musculus [26]): 46; Growth (NCI-H522 [27]): -13.9%; Score (Mus musculus [28]): 14; Score (Mus musculus [29]): 22; Score (Mus musculus [30]): 22
CC1(C)C(=O)C=C[C@@]2(C)C1C[C@@H](OC(=O)CCl)[C@@]1(C)C3=CC[C@@H](c4ccoc4)[C@]3(C)CCC21 (some centres undefined)	-8	5	14	13	5	-3	5	4	6	5	4	3	-2	12	22	5	–	–	–	–	–
CC(=O)O[C@H]1C[C@@H](OC(C)=O)C(C)(C)C2C[C@@H](OC(C)=O)[C@@]3(C)C4=CC[C@@H](c5ccoc5)[C@]4(C)CCC3[C@]21C (some centres undefined)	-5	–	42	-19	9	-22	5	15	30	3	40	4	38	-60	-24	4	24	6	24	48	Growth (NCI-H522 [27]): 8%; Score (Mus musculus [22]): 12; Score (Mus musculus [23]): 18
